Data: US20130035326A1 (AMBIT BIOSCIENCES CORPORATION, priority 2009, published 2013)
Values belong to the molecule of their own block, whether it stands above or below them.

Tests used:
FLT3 kinase = biological target: T1, FLT3 kinase (Homo sapiens, UniProt P36888); experiment: Competition binding assay, FLT3 Kd
T1 construct: made in house; host or cells: T7 phage display or HEK-293 cells
T1 sequence (P36888 27-993): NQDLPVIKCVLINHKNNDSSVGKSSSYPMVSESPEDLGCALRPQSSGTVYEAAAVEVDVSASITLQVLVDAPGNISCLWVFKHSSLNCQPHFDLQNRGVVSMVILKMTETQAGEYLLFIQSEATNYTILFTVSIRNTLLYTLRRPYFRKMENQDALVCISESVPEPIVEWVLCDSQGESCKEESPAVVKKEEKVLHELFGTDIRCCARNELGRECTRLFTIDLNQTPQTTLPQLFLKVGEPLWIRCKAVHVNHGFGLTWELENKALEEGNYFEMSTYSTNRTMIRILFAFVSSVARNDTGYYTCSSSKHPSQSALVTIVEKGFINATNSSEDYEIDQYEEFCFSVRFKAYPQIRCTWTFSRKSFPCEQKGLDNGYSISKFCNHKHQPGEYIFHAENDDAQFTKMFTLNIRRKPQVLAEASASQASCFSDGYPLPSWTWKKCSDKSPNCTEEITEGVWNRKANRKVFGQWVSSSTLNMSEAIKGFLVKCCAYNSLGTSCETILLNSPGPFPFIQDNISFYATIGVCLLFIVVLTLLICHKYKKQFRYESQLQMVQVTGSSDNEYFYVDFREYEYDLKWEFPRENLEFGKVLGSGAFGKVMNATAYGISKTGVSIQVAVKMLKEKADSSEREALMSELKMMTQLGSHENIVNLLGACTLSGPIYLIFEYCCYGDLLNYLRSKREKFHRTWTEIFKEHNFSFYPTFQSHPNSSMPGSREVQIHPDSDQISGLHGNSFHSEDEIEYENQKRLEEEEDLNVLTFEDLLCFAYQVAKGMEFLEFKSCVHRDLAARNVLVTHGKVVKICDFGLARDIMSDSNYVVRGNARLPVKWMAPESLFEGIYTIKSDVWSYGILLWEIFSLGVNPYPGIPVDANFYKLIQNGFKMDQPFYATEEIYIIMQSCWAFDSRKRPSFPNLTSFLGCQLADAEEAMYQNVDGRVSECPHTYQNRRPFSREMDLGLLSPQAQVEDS
In short: (§1)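 In this bead-based competition format, test compound (eleven concentrations, threefold steps) was incubated with kinase and immobilized affinity ligand for 1 hour at room temperature. Kinase retained on beads was released with non-biotinylated ligand and measured by quantitative PCR to give Kd.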

[1] = biological target: kinase panel containing either 359 or 386 distinct kinases; experiment: Selectivity score S10 from competition binding against a panel of kinases; conditions: compounds at 10 μM; panel of 386 distinct kinases
In short: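 Compounds were tested at 10 μM in competition binding against T7 phage-fused or HEK-293-expressed DNA-tagged kinases with immobilized affinity ligands, 1 h at room temperature. Bound kinase was quantified by qPCR as percent of DMSO control; S10 is the fraction of distinct kinases (mutants excluded) with POC below 10.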

MV4-11 cells = experiment: MV4-11 cell proliferation assay (Alamar Blue); type: cell-based; conditions: Homo sapiens, MV4-11, 72 h, 3 days incubation
In short: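 Viability readout: Alamar Blue fluorescence, ex 560/em 590 nm, 3 h after reagent addition, after 3-day exposure of 64,000 MV4-11 cells per well to a 9-point half-log compound series in 0.5% FBS Iscove's. IC50 from duplicate averages, as 50% proliferation inhibition relative to negative control.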

CSF-1R kinase = biological target: T2, CSF-1R kinase (Homo sapiens, UniProt P07333); experiment: Competition binding assay, CSF-1R Kd
T2 construct: made in house; host or cells: T7 phage display or HEK-293 cells
In short: as §1

KIT kinase = biological target: T3, KIT kinase (Homo sapiens, UniProt P10721); experiment: Competition binding assay, KIT Kd
T3 construct: made in house; host or cells: T7 phage display or HEK-293 cells
In short: as §1

T2 sequence (P07333 20-972): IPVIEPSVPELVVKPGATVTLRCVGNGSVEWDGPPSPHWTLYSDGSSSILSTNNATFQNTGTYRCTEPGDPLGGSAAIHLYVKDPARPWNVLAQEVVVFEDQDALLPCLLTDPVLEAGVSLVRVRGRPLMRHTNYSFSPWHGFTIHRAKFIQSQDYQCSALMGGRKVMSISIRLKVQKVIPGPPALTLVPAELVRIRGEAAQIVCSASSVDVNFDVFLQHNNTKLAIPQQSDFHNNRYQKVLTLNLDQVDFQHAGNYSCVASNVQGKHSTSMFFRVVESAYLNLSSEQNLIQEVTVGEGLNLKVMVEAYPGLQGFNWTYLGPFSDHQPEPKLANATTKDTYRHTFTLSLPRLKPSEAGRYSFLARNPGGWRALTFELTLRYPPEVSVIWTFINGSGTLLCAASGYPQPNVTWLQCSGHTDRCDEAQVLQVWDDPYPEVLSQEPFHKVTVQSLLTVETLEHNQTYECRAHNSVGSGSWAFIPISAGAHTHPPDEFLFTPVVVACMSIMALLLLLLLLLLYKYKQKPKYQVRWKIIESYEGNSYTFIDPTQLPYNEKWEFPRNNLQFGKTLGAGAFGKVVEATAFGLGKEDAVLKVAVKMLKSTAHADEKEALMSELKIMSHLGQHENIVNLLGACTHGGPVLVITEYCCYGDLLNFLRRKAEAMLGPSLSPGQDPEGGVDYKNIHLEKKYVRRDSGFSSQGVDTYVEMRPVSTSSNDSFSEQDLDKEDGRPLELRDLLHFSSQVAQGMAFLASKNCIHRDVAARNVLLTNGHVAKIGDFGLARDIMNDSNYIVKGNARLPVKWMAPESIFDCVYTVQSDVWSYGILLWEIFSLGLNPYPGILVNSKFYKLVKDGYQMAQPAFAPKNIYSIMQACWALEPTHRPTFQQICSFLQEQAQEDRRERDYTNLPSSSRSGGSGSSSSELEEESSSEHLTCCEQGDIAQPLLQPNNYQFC
T3 sequence (P10721 26-976): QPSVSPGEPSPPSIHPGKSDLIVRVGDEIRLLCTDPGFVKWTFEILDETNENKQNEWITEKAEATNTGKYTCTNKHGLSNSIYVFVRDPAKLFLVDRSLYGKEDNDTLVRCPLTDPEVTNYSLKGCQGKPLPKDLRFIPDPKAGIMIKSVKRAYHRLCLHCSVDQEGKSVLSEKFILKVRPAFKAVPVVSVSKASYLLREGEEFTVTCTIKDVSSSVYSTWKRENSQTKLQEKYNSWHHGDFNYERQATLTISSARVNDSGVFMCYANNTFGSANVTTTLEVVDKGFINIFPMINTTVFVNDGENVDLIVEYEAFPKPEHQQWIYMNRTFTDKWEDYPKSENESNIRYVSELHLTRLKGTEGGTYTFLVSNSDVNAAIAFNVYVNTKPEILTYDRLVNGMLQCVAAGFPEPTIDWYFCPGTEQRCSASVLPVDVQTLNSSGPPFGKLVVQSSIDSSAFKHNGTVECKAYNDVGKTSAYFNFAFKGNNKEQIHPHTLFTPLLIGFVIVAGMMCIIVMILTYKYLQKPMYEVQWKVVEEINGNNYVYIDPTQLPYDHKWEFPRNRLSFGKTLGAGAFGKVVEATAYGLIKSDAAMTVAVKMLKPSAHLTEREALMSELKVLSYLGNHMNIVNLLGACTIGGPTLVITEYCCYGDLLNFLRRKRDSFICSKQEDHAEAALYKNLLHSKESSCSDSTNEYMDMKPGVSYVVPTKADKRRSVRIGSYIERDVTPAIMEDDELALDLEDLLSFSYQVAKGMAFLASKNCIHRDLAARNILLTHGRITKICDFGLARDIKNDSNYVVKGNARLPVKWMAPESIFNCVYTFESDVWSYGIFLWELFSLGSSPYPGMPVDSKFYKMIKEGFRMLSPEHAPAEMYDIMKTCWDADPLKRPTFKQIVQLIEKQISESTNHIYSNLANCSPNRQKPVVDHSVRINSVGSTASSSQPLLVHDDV

Compound: CC(C)(F)c1cc(NC(=O)Cc2ccc(-c3ccc(NCCN4CCOCC4)nc3)cc2)on1 [Example 118, N-(3-(2-fluoropropan-2-yl)isoxazol-5-yl)-2-(4-(6-(2-morpholinoethylamino)pyridin-3-yl)phenyl)acetamide]
- Kd (FLT3 kinase): ≤ 1 nM
- Kinase specificty: S(10)-386 panel [1]: A (A≦0.1)
- IC50 (MV4-11 cells): 10 to 100 nM
- Kd (CSF-1R kinase): ≤ 10 nM
- Kd (KIT kinase): ≤ 1 nM

Compound: CC(C)(C)c1cc(NC(=O)Cc2c(F)cc(-c3ccc(N)nc3)cc2F)no1.CS(=O)(=O)O [Example 123, 5-(4-(2-(5-tert-butylisoxazol-3-ylamino)-2-oxoethyl)-3,5-difluorophenyl)pyridin-2-aminium methanesulfonate]
- Kd (FLT3 kinase): ≤ 1 nM
- Kinase specificty: S(10)-386 panel [1]: B (0.1<B≦0.2 nM)
- IC50 (MV4-11 cells): ≤ 1 nM
- Kd (CSF-1R kinase): ≤ 10 nM
- Kd (KIT kinase): 1 to 10 nM

Compound: Nc1ccc(-c2ccc(CC(=O)Nc3cc(C4(C(F)(F)F)CCC4)on3)cc2)cn1 [Example 124, 2-(4-(6-aminopyridin-3-yl)phenyl)-N-(5-(1-(trifluoromethyl)cyclobutyl)isoxazol-3-yl)acetamide]
- Kd (FLT3 kinase): ≤ 1 nM
- Kinase specificty: S(10)-386 panel [1]: B (0.1<B≦0.2 nM)
- IC50 (MV4-11 cells): ≤ 1 nM
- Kd (CSF-1R kinase): ≤ 10 nM
- Kd (KIT kinase): 1 to 10 nM

Compound: CC(C)(C)c1cc(NC(=O)Cc2ccc(-c3ccc(N)nc3)c(F)c2)no1.CS(=O)(=O)O [Example 125, 5-(4-(2-(5-tert-butylisoxazol-3-ylamino)-2-oxoethyl)-2-fluorophenyl)pyridin-2-aminium methanesulfonate]
- Kd (FLT3 kinase): ≤ 1 nM
- Kinase specificty: S(10)-386 panel [1]: A (A≦0.1)
- IC50 (MV4-11 cells): ≤ 1 nM
- Kd (CSF-1R kinase): ≤ 10 nM
- Kd (KIT kinase): ≤ 1 nM

Compound: CS(=O)(=O)O.Nc1ccc(-c2ccc(CC(=O)Nn3cc(C(F)(F)F)cn3)cc2)cn1 [Example 126, 5-(4-(2-oxo-2-(4-(trifluoromethyl)-1H-pyrazol-1-ylamino)ethyl)phenyl)pyridin-2-aminium methanesulfonate]
- Kd (FLT3 kinase): ≤ 1 nM
- Kinase specificty: S(10)-386 panel [1]: A (A≦0.1)
- IC50 (MV4-11 cells): 10 to 100 nM
- Kd (CSF-1R kinase): 10 to 100 nM
- Kd (KIT kinase): 1 to 10 nM

Compound: CC1(c2cc(NC(=O)Cc3ccc(-c4cnc(N)c(Cl)c4)cc3)no2)COC1.CS(=O)(=O)O [Example 128, 3-chloro-5-(4-(2-((5-(3-methyloxetan-3-yl)isoxazol-3-yl)amino)-2-oxoethyl)phenyl)pyridin-2-aminium methanesulfonate]
- Kd (FLT3 kinase): ≤ 1 nM
- Kinase specificty: S(10)-386 panel [1]: B (0.1<B≦0.2 nM)
- IC50 (MV4-11 cells): 1 to 10 nM
- Kd (CSF-1R kinase): ≤ 10 nM
- Kd (KIT kinase): 1 to 10 nM

Compound: COc1nc(N)ccc1-c1ccc(CC(=O)Nc2cc(C(C)(C)C)on2)cc1.CS(=O)(=O)O [Example 131, 5-(4-(2-(5-tert-butylisoxazol-3-ylamino)-2-oxoethyl)phenyl)-6-methoxypyridin-2-aminium methanesulfonate]
- Kd (FLT3 kinase): 1 to 10 nM
- Kinase specificty: S(10)-386 panel [1]: A (A≦0.1)
- IC50 (MV4-11 cells): 100 to 500 nM
- Kd (CSF-1R kinase): > 500 nM
- Kd (KIT kinase): 10 to 100 nM

Compound: CC1(c2cc(NC(=O)Cc3ccc(-c4ccc(N)nc4F)cc3)no2)CC1 [Example 134, 2-(4-(6-amino-2-fluoropyridin-3-yl)phenyl)-N-(5-(1-methylcyclopropyl)isoxazol-3-yl)acetamide]
- Kd (FLT3 kinase): ≤ 1 nM
- Kinase specificty: S(10)-386 panel [1]: A (A≦0.1)
- IC50 (MV4-11 cells): 1 to 10 nM
- Kd (CSF-1R kinase): ≤ 10 nM
- Kd (KIT kinase): ≤ 1 nM

Compound: COc1cc(-c2ccc(CC(=O)Nc3cc(C(C)(C)C)on3)cc2)cnc1N.CS(=O)(=O)O [Example 136, 5-(4-(2-(5-tert-butylisoxazol-3-ylamino)-2-oxoethyl)phenyl)-3-methoxypyridin-2-aminium methanesulfonate]
- Kd (FLT3 kinase): ≤ 1 nM
- Kinase specificty: S(10)-386 panel [1]: B (0.1<B≦0.2 nM)
- IC50 (MV4-11 cells): ≤ 1 nM
- Kd (CSF-1R kinase): ≤ 10 nM
- Kd (KIT kinase): 1 to 10 nM

Results, then the molecule that gave them:

- Kd (FLT3 kinase): ≤ 1 nM
- Kinase specificty: S(10)-386 panel [1]: B (0.1<B≦0.2 nM)
- IC50 (MV4-11 cells): ≤ 1 nM
- Kd (CSF-1R kinase): ≤ 10 nM
- Kd (KIT kinase): 1 to 10 nM
Compound: CN1C(C)(C)CC(=CCNc2ccc(-c3ccc(CC(=O)Nc4cc(C(C)(C)C)on4)cc3)cn2)CC1(C)C [Example 117, N-(5-tert-butylisoxazol-3-yl)-2-(4-(6-(2-(1,2,2,6,6-pentamethylpiperidin-4-ylidene)ethylamino)pyridin-3-yl)phenyl)acetamide]

- Kd (FLT3 kinase): ≤ 1 nM
- Kinase specificty: S(10)-386 panel [1]: A (A≦0.1)
- IC50 (MV4-11 cells): ≤ 1 nM
- Kd (CSF-1R kinase): ≤ 10 nM
- Kd (KIT kinase): 1 to 10 nM
Compound: CC(C)(C)c1cc(NC(=O)Cc2ccc(-c3ccc(N)nc3F)cc2)on1.CS(=O)(=O)O [Example 119, 5-(4-(2-(3-tert-butylisoxazol-5-ylamino)-2-oxoethyl)phenyl)-6-fluoropyridin-2-aminium methanesulfonate]

- Kd (FLT3 kinase): 1 to 10 nM
- Kinase specificty: S(10)-386 panel [1]: A (A≦0.1)
- IC50 (MV4-11 cells): ≤ 1 nM
- Kd (CSF-1R kinase): 10 to 100 nM
- Kd (KIT kinase): 1 to 10 nM
Compound: CS(=O)(=O)O.Nc1ccc(-c2ccc(NC(=O)Nc3cc(C4(C(F)(F)F)CCC4)on3)cc2)cn1 [Example 121, 5-(4-(3-(5-(1-(trifluoromethyl)cyclobutyl)isoxazol-3-yl)ureido)phenyl)pyridin-2-aminium methanesulfonate]

- Kd (FLT3 kinase): 1 to 10 nM
- Kinase specificty: S(10)-386 panel [1]: A (A≦0.1)
- IC50 (MV4-11 cells): 10 to 100 nM
- Kd (CSF-1R kinase): 100 to 500 nM
- Kd (KIT kinase): 10 to 100 nM
Compound: CC1(CCNc2ccc(-c3ccc(CC(=O)Nc4cc(C(C)(C)C)on4)cc3)cn2)COC1 [Example 122, N-(5-tert-butylisoxazol-3-yl)-2-(4-(6-(2-(3-methyloxetan-3-yl)ethylamino)pyridin-3-yl)phenyl)acetamide]

- Kd (FLT3 kinase): ≤ 1 nM
- Kinase specificty: S(10)-386 panel [1]: A (A≦0.1)
- IC50 (MV4-11 cells): 1 to 10 nM
- Kd (CSF-1R kinase): ≤ 10 nM
- Kd (KIT kinase): 1 to 10 nM
Compound: CC(C)(C)c1cc(NC(=O)Cc2ccc(-c3ccc(N)nc3Cl)cc2)no1.CS(=O)(=O)O [Example 132, 5-(4-(2-(5-tert-butylisoxazol-3-ylamino)-2-oxoethyl)phenyl)-6-chloropyridin-2-aminium methanesulfonate]

- Kd (FLT3 kinase): ≤ 1 nM
- Kinase specificty: S(10)-386 panel [1]: B (0.1<B≦0.2 nM)
- IC50 (MV4-11 cells): ≤ 1 nM
- Kd (CSF-1R kinase): ≤ 10 nM
- Kd (KIT kinase): 1 to 10 nM
Compound: CS(=O)(=O)O.Nc1ncc(-c2ccc(CC(=O)Nc3cc(C4(C(F)(F)F)CC4)on3)cc2)cc1Cl [Example 133, 3-chloro-5-(4-(2-oxo-2-(5-(1-(trifluoromethyl)cyclopropyl)isoxazol-3-ylamino)ethyl)phenyl)pyridin-2-aminium methanesulfonate]

- Kd (FLT3 kinase): ≤ 1 nM
- Kinase specificty: S(10)-386 panel [1]: B (0.1<B≦0.2 nM)
- IC50 (MV4-11 cells): 1 to 10 nM
- Kd (CSF-1R kinase): ≤ 10 nM
- Kd (KIT kinase): 1 to 10 nM
Compound: CC1(c2cc(NC(=O)Cc3ccc(-c4cnc(N)c(C(F)(F)F)c4)cc3)no2)COC1.CS(=O)(=O)O [Example 135, 5-(4-(2-((5-(3-methyloxetan-3-yl)isoxazol-3-yl)amino)-2-oxoethyl)phenyl)-3-(trifluoromethyl)pyridin-2-aminium methanesulfonate]

- Kd (FLT3 kinase): ≤ 1 nM
- Kinase specificty: S(10)-386 panel [1]: A (A≦0.1)
- IC50 (MV4-11 cells): ≤ 1 nM
- Kd (CSF-1R kinase): 10 to 100 nM
- Kd (KIT kinase): 1 to 10 nM
Compound: CS(=O)(=O)O.Nc1ccc(-c2ccc(CC(=O)Nc3cc(C4(C(F)(F)F)CC4)on3)cc2)c(F)n1 [Example 137, 6-fluoro-5-(4-(2-oxo-2-(5-(1-(trifluoromethyl)cyclopropyl)isoxazol-3-ylamino)ethyl)phenyl)pyridin-2-aminium methanesulfonate]

- Kd (FLT3 kinase): ≤ 1 nM
- Kinase specificty: S(10)-386 panel [1]: B (0.1<B≦0.2 nM)
- IC50 (MV4-11 cells): ≤ 1 nM
- Kd (CSF-1R kinase): ≤ 10 nM
- Kd (KIT kinase): ≤ 1 nM
Compound: CC1(c2cc(NC(=O)Cc3ccc(-c4cnc(N)c(F)c4)cc3)no2)CC1.CS(=O)(=O)O [Example 138, 3-fluoro-5-(4-(2-(5-(1-methylcyclopropyl)isoxazol-3-ylamino)-2-oxoethyl)phenyl)pyridin-2-aminium methanesulfonate]
